# Data published in patent US11198710B2, “Transgenic plant having herbicide resistance” (priority 2016, dated 2021).
# pIC50: −log10 of the molar value. Where two headings read alike, the source gives them in different places.
# System: rice plants comprising the TaQ8GTC0 gene introduced therein
# Assay: Herbicide resistance test of rice plants comprising the TaQ8GTC0 gene, gellan gum medium, plant height
# Assay type: in vivo
# Details: for pIC50: Oryza sativa, read-out: I50
# Description: Hoagland's mix and 3 g of gellan gum were suspended in 1 liter of distilled water and thoroughly dissolved therein by heating in a microwave. A fraction of the resultant (15 ml) was injected into a tubular bottle before it was cooled (30 ml was injected into the plate). The herbicide was simultaneously added at the time of injection of the gellan gum medium into the tubular bottle or plate, followed by thorough mixing. Rice hulls were soaked in a 50-fold diluted sodium hypochlorite solution (antiformin) (Wako) for approximately 20 minutes and then thoroughly washed with water. Sterilized seeds were soaked in distilled water and allowed to stand at 27° C. for germination (for approximately 2 days). Germinating seeds were softly planted in the gellan gum medium (plate) containing 0.25 μM BS. These samples, together with a beaker filled with distilled water, were placed in a transparent case, which was then covered with a clear plastic wrap. These samples were grown at 27° C. under fluorescent light illumination (14 hours of a light period and 10 hours of a dark period) for 2 days. Thereafter, rice seeds that were determined to have BS resistance with the use of root elongation as the indicator were transferred to gellan gum media containing pyroxasulfone (tubal bottles) at the final concentrations of 10^−8, 10^−7, 10^−6, and 10^−5M, respectively. Subsequently, these samples, together with a beaker filled with distilled water, were placed in a transparent case, which was then covered with a clear plastic wrap. These samples were grown at 27° C. under fluorescent light illumination (14 hours of a light period and 10 hours of a dark period) for 4 to 5 days, and the plant heights were then measured. Inhibition of shoot growth was determined by comparison to control plants grown in the absence of pyroxasulfone and the concentration for required 50% inhibition (IC50) was determined by the Probit method.
# Resistance of rice plants comprising the TaQ8GTC0 gene introduced therein to VLCFAE-inhibiting herbicides was tested in the same manner as with the pyroxasulfone resistance test described above.
# FIGS. 7-1 to 7-6 show the results. In FIGS. 7-1 to 7-6, the concentration of 0 μM, the minimal concentration shown in Table 4 (×1), the concentration 4 times higher than the minimal concentration shown in Table 4 (×4), and the concentration 16 times higher than the minimal concentration shown in Table 4 (×16) are shown successively from left to right.
smiles,measurement,setting,value
"Cn1nc(C(F)(F)F)c(CS(=O)(=O)C2=NOC(C)(C)C2)c1OC(F)F [Pyroxasulfone, 3-[5-(difluoromethoxy)-1-methyl-3-(trifluoromethyl)pyrazol-4-ylmethylsulfonyl]-4,5-dihydro-5,5-dimethyl-1,2-oxazole]",pyroxasulfone resistance relative to wild-type plants,16 lines among 18 lines used in the test,≥ 10 times
same,pIC50,lineage #1-3,5.94
same,pIC50,lineage #1-4,5.88
same,pIC50,lineage #1-7,6.01
same,pIC50,lineage #1-10,6.29
same,pIC50,lineage #2-6,6.01
same,pIC50,lineage #2-9,5.96
same,pIC50,lineage #3-4,5.76
same,pIC50,lineage #3-9,6.00
same,pIC50,lineage #3-12,7.17
same,pIC50,lineage #3-13,4.86
same,pIC50,lineage #4-1,6.30
same,pIC50,lineage #4-3,5.37
same,pIC50,lineage #4-7,5.15
same,pIC50,lineage #4-10,5.67
same,pIC50,lineage #4-13,5.41
same,pIC50,lineage #4-14,7.35
same,pIC50,lineage #5-1,6.01
same,pIC50,lineage #5-11,6.01
same,Pyroxasulfone resistance (ratio of IC50 of transformed rice to IC50 of wild-type rice),lineage #1-3,29
same,Pyroxasulfone resistance (ratio of IC50 of transformed rice to IC50 of wild-type rice),lineage #1-4,33
same,Pyroxasulfone resistance (ratio of IC50 of transformed rice to IC50 of wild-type rice),lineage #1-7,25
same,Pyroxasulfone resistance (ratio of IC50 of transformed rice to IC50 of wild-type rice),lineage #1-10,13
same,Pyroxasulfone resistance (ratio of IC50 of transformed rice to IC50 of wild-type rice),lineage #2-6,25
same,Pyroxasulfone resistance (ratio of IC50 of transformed rice to IC50 of wild-type rice),lineage #2-9,28
same,Pyroxasulfone resistance (ratio of IC50 of transformed rice to IC50 of wild-type rice),lineage #3-4,44
same,Pyroxasulfone resistance (ratio of IC50 of transformed rice to IC50 of wild-type rice),lineage #3-9,26
same,Pyroxasulfone resistance (ratio of IC50 of transformed rice to IC50 of wild-type rice),lineage #3-12,2
same,Pyroxasulfone resistance (ratio of IC50 of transformed rice to IC50 of wild-type rice),lineage #3-13,353
same,Pyroxasulfone resistance (ratio of IC50 of transformed rice to IC50 of wild-type rice),"lineage #3-13, listed as pyroxasulfone",approximately 350
same,growth of rice plants comprising the TaQ8GTC0 gene on herbicide medium,"lineage #3-13, minimal concentration (×1), ×4 and ×16 of Table 4",the growth thereof was not affected at the maximal test concentration
same,Pyroxasulfone resistance (ratio of IC50 of transformed rice to IC50 of wild-type rice),lineage #4-1,13
same,Pyroxasulfone resistance (ratio of IC50 of transformed rice to IC50 of wild-type rice),lineage #4-3,111
same,Pyroxasulfone resistance (ratio of IC50 of transformed rice to IC50 of wild-type rice),lineage #4-7,183
same,resistance to pyroxasulfone,"lineage #4-7, no data disclosed",high level of resistance
same,Pyroxasulfone resistance (ratio of IC50 of transformed rice to IC50 of wild-type rice),lineage #4-10,54
same,Pyroxasulfone resistance (ratio of IC50 of transformed rice to IC50 of wild-type rice),lineage #4-13,99
same,Pyroxasulfone resistance (ratio of IC50 of transformed rice to IC50 of wild-type rice),lineage #4-14,1
same,Pyroxasulfone resistance (ratio of IC50 of transformed rice to IC50 of wild-type rice),lineage #5-1,25
same,Pyroxasulfone resistance (ratio of IC50 of transformed rice to IC50 of wild-type rice),lineage #5-11,25
